From ChEMBL document CHEMBL3988442, “University of Dundee, Small-Polar-MMV Screening Library” (2021)
Several values for one entry are separate records, joined by “and”; a condition that tells them apart may be missing. Equal entries are not always repeated.

What was measured:
[1] = biological target: T1, Ubiquitin-activating enzyme e1, putative (Leishmania donovani (strain BPK282A1), UniProt E9BSI1); test: Leishmania donovani Ubiquitin Activating Enzyme (LdE1); format: functional
T1 sequence (E9BSI1 whole entry): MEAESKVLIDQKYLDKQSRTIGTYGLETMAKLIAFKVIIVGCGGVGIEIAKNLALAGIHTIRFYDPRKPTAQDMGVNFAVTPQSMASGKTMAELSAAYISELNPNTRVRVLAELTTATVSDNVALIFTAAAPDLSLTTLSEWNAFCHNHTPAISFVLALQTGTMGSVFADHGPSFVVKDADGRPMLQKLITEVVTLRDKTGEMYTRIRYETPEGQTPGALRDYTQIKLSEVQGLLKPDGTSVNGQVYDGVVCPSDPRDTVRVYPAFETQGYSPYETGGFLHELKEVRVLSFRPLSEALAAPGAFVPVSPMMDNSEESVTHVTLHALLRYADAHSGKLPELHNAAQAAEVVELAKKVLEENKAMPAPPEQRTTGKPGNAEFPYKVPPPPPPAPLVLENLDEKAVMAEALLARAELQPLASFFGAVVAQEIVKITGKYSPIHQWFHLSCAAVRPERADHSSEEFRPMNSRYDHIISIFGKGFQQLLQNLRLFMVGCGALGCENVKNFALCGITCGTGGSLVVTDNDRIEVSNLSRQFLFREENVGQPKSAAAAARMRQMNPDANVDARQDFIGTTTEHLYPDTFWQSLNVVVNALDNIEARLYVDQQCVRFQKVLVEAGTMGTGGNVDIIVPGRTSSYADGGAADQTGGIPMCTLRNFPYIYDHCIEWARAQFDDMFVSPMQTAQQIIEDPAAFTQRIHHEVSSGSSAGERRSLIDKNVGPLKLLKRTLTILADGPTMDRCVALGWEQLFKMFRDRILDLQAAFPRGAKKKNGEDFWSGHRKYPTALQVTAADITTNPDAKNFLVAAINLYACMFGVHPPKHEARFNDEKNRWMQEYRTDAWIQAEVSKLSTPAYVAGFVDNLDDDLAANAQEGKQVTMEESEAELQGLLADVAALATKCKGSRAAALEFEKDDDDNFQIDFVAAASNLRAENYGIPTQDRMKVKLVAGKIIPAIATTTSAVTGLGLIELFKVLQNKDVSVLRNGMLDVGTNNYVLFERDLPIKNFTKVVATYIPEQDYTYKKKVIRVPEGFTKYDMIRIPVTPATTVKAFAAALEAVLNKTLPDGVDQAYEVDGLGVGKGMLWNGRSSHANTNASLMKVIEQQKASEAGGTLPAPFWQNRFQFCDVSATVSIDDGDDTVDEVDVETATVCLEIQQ

Plasmodium falciparum [2] = test: Plasmodium falciparum sporozoite viability assay; format: functional, organism-based; conditions: for IC50: Plasmodium falciparum
Plasmodium falciparum [3] = test: Calibr Malaria Delayed Death Assay SOP; format: functional, organism-based; conditions: for IC50: Plasmodium falciparum
Leishmania donovani = test: Leishmania intramacrophage assay; format: functional, organism-based; conditions: Leishmania donovani
[4] = microbe, parasite or virus in culture; conditions: Mycobacterium tuberculosis, 72 h, read-out: pIC50 (converted)
[5] = microbe, parasite or virus in culture; conditions: Mycobacterium tuberculosis, 96 h, read-out: pIC50 (converted)
Histidine--tRNA ligase = biological target: T2, Histidine--tRNA ligase (Leishmania infantum, UniProt A4I591); test: Leishmania infantum Histidine tRNA synthetase (LdHisRS); format: functional
T2 sequence (A4I591 whole entry): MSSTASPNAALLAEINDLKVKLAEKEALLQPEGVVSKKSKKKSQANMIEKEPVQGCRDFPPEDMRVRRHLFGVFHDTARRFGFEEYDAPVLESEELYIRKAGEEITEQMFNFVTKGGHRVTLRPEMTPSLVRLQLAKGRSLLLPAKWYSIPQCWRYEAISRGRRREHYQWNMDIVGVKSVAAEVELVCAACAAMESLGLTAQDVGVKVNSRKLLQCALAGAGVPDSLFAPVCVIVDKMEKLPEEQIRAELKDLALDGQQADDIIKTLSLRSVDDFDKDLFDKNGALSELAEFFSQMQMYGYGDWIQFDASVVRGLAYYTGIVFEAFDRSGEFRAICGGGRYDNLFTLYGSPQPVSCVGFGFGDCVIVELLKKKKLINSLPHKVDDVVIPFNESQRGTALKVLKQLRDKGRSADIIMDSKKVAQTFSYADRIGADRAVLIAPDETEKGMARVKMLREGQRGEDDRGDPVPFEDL

[6] = tested on: Mycobacterium tuberculosis; test: Cornell M. t heat shock assay; format: functional, organism-based; conditions: Mycobacterium tuberculosis
Schistosoma mansoni = test: High throughput screening of compounds against Schistosoma mansoni motility; format: functional; design: dose or concentration left out as unconfirmed
[7] = biological target: T3, Coenzyme A biosynthesis bifunctional protein CoaBC (Mycobacterium tuberculosis (strain ATCC 25618 / H37Rv), UniProt P9WNZ1); test: Biomol Green assay for MtCoaBC inhibitor, OD650 read; format: functional
T3 sequence (P9WNZ1 whole entry): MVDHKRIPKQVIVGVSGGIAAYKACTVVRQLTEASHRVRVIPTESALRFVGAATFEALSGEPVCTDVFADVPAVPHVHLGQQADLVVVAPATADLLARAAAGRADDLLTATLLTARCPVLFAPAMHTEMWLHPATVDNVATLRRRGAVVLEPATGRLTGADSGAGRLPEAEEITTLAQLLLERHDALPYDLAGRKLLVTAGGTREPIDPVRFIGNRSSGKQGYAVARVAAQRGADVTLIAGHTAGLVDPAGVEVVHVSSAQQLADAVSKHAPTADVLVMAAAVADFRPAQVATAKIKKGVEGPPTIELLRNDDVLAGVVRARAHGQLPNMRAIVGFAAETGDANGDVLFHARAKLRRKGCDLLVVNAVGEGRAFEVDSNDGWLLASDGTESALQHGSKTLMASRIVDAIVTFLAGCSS

[8] = In vitro enzyme assay to detect hydrolysis of chlorophenol red-beta-D-[…] directly proportional to the number of Toxoplasma stably expressing beta-galactosidase; format: functional, organism-based, Toxoplasma gondii; conditions: Toxoplasma gondii

SMILES	pIC50 (Plasmodium falciparum [2])	IC50 (Plasmodium falciparum [2])	other results
Cc1nc(C)n(CC2CCCCN2Cc2nc3ccccc3o2)n1 (stereo unspecified)			IC50 [1]: > 100000 nM
COc1ccc(OC)c(CNCc2ccnc(N3CCCCC3)c2)c1			IC50 [1]: > 100000 nM
Cc1nc(C)n(CC2CCCN2Cc2ncc(C(C)(C)C)o2)n1 (stereo unspecified)			IC50 [1]: > 100000 nM
CC(NC(=O)NCCNc1ccccn1)c1cccs1 (stereo unspecified)			IC50 [1]: > 100000 nM
Cc1cn2c(n1)C(CNCC1=Cc3ccccc3OC1)CCC2 (stereo unspecified)	7.385	62.3 nM	pIC50 (Plasmodium falciparum [3]): 5.983; IC50 (Plasmodium falciparum [3]): 903 nM
c1cnc(-c2nc(CN3CCN(CC4CC4)CC3)cs2)nc1	5.511	2260 nM	IC50 (Leishmania donovani): > 50100 nM
FC(F)(F)Oc1ccc(-c2noc([C@@H]3Cc4nc[nH]c4CN3)n2)cc1	6.357	221 nM	IC50 [4]: > 50100 nM; IC50 [5]: > 50100 nM
COc1cc(F)c(NCc2nc3ccccc3n2C)cc1OC		260 nM	IC50 (Histidine--tRNA ligase): 59700 nM and 57600 nM
COc1ccc(-c2ccc(C3CNCCO3)nc2)cc1.Cl (stereo unspecified)	7.404	73 nM	pIC50 (Plasmodium falciparum [3]): 6.456; IC50 (Plasmodium falciparum [3]): 190 nM
COC(=O)CSCc1noc(-c2ccc(Cl)cc2)n1	6.573	454 nM	IC50 [4]: > 50100 nM; IC50 [5]: > 50100 nM
Cc1ccc(-c2ccc(C3CNCCO3)nc2)cc1.Cl (stereo unspecified)	7.716	23.1 nM	pIC50 (Plasmodium falciparum [3]): 6.712; IC50 (Plasmodium falciparum [3]): 108 nM
O=C(Nc1cccnc1)C1Cc2nc(-c3ccsc3)sc2N1CC1CC1.O=C(O)C(F)(F)F (stereo unspecified)	5.393	3000 nM	IC50 (Histidine--tRNA ligase): 27400 nM and 35200 nM
Cl.Clc1ccc(-c2ccc(C3CNCCO3)nc2)cc1 (stereo unspecified)		75 nM	pIC50 (Plasmodium falciparum [3]): 6.505; IC50 (Plasmodium falciparum [3]): 433 nM
COC(=O)CSCc1noc(-c2ccc(C)cc2)n1	6.885 and 7.313		IC50 [4]: 24400 nM; IC50 [5]: > 50100 nM
Cc1csc(NC(=O)c2cnc(C3CCCN3)cn2)n1.Cl (stereo unspecified)	7.11	153 nM	IC50 [6]: > 100000 nM
CC(C)C(=O)N1CCN(Cc2csc(-c3ncccn3)n2)CC1	5.96	1420 nM	IC50 (Leishmania donovani): > 50100 nM
CC(C)(C)n1cc(C2=CCN(CCc3ccccc3)CC2)cn1	5.875	1530 nM	Percent Effect (Schistosoma mansoni): 26.35%; pIC50 (Plasmodium falciparum [3]): 6.257; IC50 (Plasmodium falciparum [3]): 571 nM
Cc1ccsc1-c1cccc(-c2ccn(CC3CCNC3)n2)c1 (stereo unspecified)	5.798	2580 nM	IC50 [4]: 23800 nM; IC50 [5]: 21300 nM
Cc1cccc(NC2CCN(C(=O)Nc3ccc(F)c(F)c3)CC2)n1		7620 nM	IC50 [6]: > 49000 nM
CN(C)CCNC(=O)C1Cc2nc(-c3ccccc3)sc2N1CC1CC1 (stereo unspecified)		3590 nM	IC50 [4]: > 50100 nM; IC50 [5]: > 50100 nM
Cc1cn2c(n1)C(CNCC1=Cc3cc(Cl)ccc3OC1)CCC2 (stereo unspecified)	5.932	908 nM	pIC50 (Plasmodium falciparum [3]): 5.847; IC50 (Plasmodium falciparum [3]): 1660 nM
CCn1cc(NC(=O)Nc2ccc3c(c2)OCCO3)cn1	7.305 and 6.856		

SMILES	pIC50 (Plasmodium falciparum [2])	IC50 (Plasmodium falciparum [2])	other results
Cc1csc(NC(=O)c2cnc(C3CCCN(C)C3)cn2)n1 (stereo unspecified)	5.674 and 6.096		
CC(C)c1nc2cc(NC(=O)c3n[nH]c4c3CCC4)ccc2n1C	6.833 and 6.465		IC50 [7]: > 30200 nM
CC(C)C(=O)N1CCN(Cc2csc(-c3ccccn3)n2)CC1	5.915	965 nM	
CC(=O)Nc1nc(C(=O)N2CCCC(n3cncn3)C2)cs1 (stereo unspecified)	5.727	3370 nM	
c1ccc2sc(CN3CCCC3c3noc(C4CC4)n3)nc2c1 (stereo unspecified)	5.79 and 6.107		
Cc1cccc(Nc2cc(C3CCCN(CC(N)=O)C3)ccn2)n1.O=CO.O=CO (stereo unspecified)	6.742	186 nM	
COc1ccc2cc(C3CN(C(=O)CN4CCCC4)CCO3)ccc2c1 (stereo unspecified)	5.408	7630 nM	
Cn1cnnc1C1CCN(C(=O)CCCOc2ccccc2F)CC1	6.053	1300 nM	
Cc1cc(NC(=O)c2ccc(CN3CC[C@H](O)C3)cc2)ccc1F	7.801	15.2 nM	
CSc1ccc(-c2nc(CN3CCC(NC(C)=O)C3)c(C)o2)cc1 (stereo unspecified)	6.077	533 nM	
CCN1CCN(Cc2coc(-c3cccc(F)c3)n2)CC1	6.19	800 nM	
COCc1noc(-c2ccc(N3CCC[C@H]3CO)nc2)n1	7.269	60.2 nM	
CC(C)(C)c1ncc(C(=O)NCCSc2ccccn2)c(O)n1	7.35	63.2 nM	
c1ccc2sc(CN3CCOC(Cn4cccn4)C3)nc2c1 (stereo unspecified)	6.078 and 6.413		
CC(=O)Nc1ncc(S(=O)(=O)Nc2ccc3c(c2)OCCO3)s1	6.905	144 nM	IC50 [8]: > 50100 nM
c1ccc(-c2nc(CN3CCc4c(ncn4C4CC4)C3)cs2)cc1	5.414	2990 nM	
CN1CCOC(C(=O)Nc2ccc3c(c2)nc(C(C)(C)C)n3C)C1 (stereo unspecified)	7.552	16.9 nM	
Cc1ccnc(NC(=O)c2ccc(Cl)o2)c1	7.621 and 7.995		
CC(C)c1nc2c(n1C)CCN(Cc1nc(-c3ccoc3)no1)C2	5.631	3150 nM	
c1cncc(OCc2nc(C3CC3)nn2-c2ccc3c(c2)OCCO3)c1	5.428	3840 nM	
CO[C@H]1C[C@@H](O)C12CCN(C(=O)CCCOc1ccccc1)CC2	6.089 and 6.557		
